This note sets out measurements from patent publication US20100278776A1, “PHARMACEUTICAL COMPOSITIONS FOR MODULATING A KINASE CASCADE AND METHODS OF USE THEREOF” (Kinex Pharmaceuticals, LLC, priority 2007, published 2010).

In the experiment the test system is HBV. The experiment is described as follows: HBV primary assay (HepG2-2.2.15 antiviral assay). The class given is cell-based. The settings on record: Hepatitis B virus, Test Concentration 10 μM, read-out: Antiviral Activity Percent inhibition of cell control. The method, then:
The HBV primary assay developed was conducted similarly to that described by Korba et al., (Antiviral Res. 15: 217-228 (1991) and Antiviral Res. 19: 55-70 (1992)) with the exception that viral DNA detection and quantification have been improved and simplified (Korba et al., Antiviral Res. 19: 55-70 (1992)).
The HepG2-2.2.15 is a stable cell line producing high levels of the wild-type aywl strain of HBV. Briefly, HepG2-2.2.15 cells were plated in 96-well plates. Only the interior wells were utilized to reduce “edge effects” observed during cell culture; the exterior wells are filled with complete medium to help minimize sample evaporation. […] Six days following the initial administration of the test compound, the cell culture supernatant was collected, treated with pronase and DNAse and then used in a real-time quantitative TaqMan PCR assay for direct measurement of HBV DNA copies using an ABI Prism 7900 sequence detection system (Applied Biosystems, Foster City, Calif.).
The antiviral activity of each test compound was calculated by comparing its HBV DNA copies against that of the untreated control cells (100%) to derive percent inhibition level. […] Cytotoxicity of the compound was determined by comparing its cell viability with that of the untreated cell control to derive percentage of the cell control.

Counter-ions that a name gives are not always drawn.

Usually inhibition stands for how much of the control response was suppressed. As to `O=C(Cc1ccc(-c2ccc(OCCN3CCOCC3)cc2)cn1)NCc1ccccc1` [Compound (I): 2HCl, 2-(5-(4-(2-morpholinoethoxy)phenyl)pyridin-2-yl)-N-benzylacetamide dihydrochloride salt], the inhibition at 10 µM was determined as 48.2%.
